Each block holds one compound with its values, some of them ahead of it. The source made the active and inactive calls.
Key:
Format in all cases: functional
[1] = biological target: Tyrosine-protein kinase JAK2 (Homo sapiens, UniProt O60674);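 note: JAK2 tested as one member of a kinase panel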
[2] = biological target: Tyrosine-protein kinase receptor TYRO3 (Homo sapiens, UniProt Q06418);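 note: TYRO3 value obtained as one member of a kinome-wide profiling panel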
[3] = biological target: Serine/threonine-protein kinase 17A (Homo sapiens, UniProt Q9UEE5)
[4] = biological target: Death-associated protein kinase 3 (Homo sapiens, UniProt O43293);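 note: measured as one member of a kinome-wide profiling panel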
Death-associated protein kinase 3, sequence (O43293 whole entry): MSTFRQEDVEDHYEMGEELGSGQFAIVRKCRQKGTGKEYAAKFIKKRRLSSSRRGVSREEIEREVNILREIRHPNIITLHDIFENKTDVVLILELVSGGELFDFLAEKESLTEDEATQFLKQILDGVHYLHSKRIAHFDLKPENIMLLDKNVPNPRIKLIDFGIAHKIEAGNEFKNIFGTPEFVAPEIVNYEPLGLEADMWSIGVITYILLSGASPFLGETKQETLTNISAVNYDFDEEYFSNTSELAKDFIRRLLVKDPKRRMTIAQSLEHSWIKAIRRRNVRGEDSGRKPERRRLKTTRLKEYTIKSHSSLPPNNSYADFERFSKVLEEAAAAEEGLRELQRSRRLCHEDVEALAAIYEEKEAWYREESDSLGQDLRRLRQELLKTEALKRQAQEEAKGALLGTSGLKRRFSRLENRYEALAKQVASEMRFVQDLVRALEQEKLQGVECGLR

[5] = biological target: Mast/stem cell growth factor receptor Kit (Homo sapiens, UniProt P10721);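 note: KIT entry within a kinase panel assay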
[6] = biological target: Casein kinase II subunit alpha (Homo sapiens, UniProt P68400)
[7] = biological target: Tyrosine-protein kinase JAK3 (Homo sapiens, UniProt P52333)
[8] = biological target: Tyrosine-protein kinase Blk (Homo sapiens, UniProt P51451);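 note: obtained as one member of a kinome-wide kinase assay panel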
[9] = biological target: Homeodomain-interacting protein kinase 2 (Homo sapiens, UniProt Q9H2X6);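 note: measured within a kinome-wide kinase profiling panel, HIPK2 being one panel member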
[10] = biological target: Protein kinase C gamma type (Homo sapiens, UniProt P05129)
[11] = biological target: Vascular endothelial growth factor receptor 2 (Homo sapiens, UniProt P35968)
[12] = biological target: G protein-coupled receptor kinase 5 (Homo sapiens, UniProt P34947); assay: Navigating the Kinome. Panel member name: GPRK5
[13] = biological target: Dual specificity tyrosine-phosphorylation-regulated kinase 1B (Homo sapiens, UniProt Q9Y463); assay: Navigating the Kinome. Panel member name: DYRK1B
Dual specificity tyrosine-phosphorylation-regulated kinase 1B, sequence (Q9Y463 whole entry): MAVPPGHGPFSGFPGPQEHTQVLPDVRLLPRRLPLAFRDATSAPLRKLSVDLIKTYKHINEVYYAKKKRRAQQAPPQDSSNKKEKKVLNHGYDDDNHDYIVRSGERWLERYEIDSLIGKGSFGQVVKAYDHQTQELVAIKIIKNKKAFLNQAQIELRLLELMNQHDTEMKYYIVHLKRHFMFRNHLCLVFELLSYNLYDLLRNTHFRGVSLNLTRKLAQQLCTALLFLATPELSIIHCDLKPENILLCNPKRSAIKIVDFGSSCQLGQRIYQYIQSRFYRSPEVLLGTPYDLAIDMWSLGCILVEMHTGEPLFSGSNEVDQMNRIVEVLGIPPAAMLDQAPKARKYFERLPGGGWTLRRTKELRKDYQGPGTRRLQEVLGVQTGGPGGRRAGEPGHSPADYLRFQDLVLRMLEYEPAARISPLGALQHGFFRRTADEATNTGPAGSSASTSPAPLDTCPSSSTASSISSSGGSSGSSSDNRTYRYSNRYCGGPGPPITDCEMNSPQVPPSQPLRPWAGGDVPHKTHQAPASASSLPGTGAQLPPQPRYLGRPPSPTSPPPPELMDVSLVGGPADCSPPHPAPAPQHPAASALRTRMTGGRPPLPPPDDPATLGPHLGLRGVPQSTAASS

[14] = biological target: Platelet-derived growth factor receptor alpha (Homo sapiens, UniProt P16234); assay: Navigating the Kinome. Panel member name: PDGFRA
[15] = biological target: Leucine-rich repeat serine/threonine-protein kinase 2 (Homo sapiens, UniProt Q5S007);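 note: value from a broad kinome-wide panel profiling study in which LRRK2 was one of the kinases tested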
Leucine-rich repeat serine/threonine-protein kinase 2, sequence (Q5S007 whole entry): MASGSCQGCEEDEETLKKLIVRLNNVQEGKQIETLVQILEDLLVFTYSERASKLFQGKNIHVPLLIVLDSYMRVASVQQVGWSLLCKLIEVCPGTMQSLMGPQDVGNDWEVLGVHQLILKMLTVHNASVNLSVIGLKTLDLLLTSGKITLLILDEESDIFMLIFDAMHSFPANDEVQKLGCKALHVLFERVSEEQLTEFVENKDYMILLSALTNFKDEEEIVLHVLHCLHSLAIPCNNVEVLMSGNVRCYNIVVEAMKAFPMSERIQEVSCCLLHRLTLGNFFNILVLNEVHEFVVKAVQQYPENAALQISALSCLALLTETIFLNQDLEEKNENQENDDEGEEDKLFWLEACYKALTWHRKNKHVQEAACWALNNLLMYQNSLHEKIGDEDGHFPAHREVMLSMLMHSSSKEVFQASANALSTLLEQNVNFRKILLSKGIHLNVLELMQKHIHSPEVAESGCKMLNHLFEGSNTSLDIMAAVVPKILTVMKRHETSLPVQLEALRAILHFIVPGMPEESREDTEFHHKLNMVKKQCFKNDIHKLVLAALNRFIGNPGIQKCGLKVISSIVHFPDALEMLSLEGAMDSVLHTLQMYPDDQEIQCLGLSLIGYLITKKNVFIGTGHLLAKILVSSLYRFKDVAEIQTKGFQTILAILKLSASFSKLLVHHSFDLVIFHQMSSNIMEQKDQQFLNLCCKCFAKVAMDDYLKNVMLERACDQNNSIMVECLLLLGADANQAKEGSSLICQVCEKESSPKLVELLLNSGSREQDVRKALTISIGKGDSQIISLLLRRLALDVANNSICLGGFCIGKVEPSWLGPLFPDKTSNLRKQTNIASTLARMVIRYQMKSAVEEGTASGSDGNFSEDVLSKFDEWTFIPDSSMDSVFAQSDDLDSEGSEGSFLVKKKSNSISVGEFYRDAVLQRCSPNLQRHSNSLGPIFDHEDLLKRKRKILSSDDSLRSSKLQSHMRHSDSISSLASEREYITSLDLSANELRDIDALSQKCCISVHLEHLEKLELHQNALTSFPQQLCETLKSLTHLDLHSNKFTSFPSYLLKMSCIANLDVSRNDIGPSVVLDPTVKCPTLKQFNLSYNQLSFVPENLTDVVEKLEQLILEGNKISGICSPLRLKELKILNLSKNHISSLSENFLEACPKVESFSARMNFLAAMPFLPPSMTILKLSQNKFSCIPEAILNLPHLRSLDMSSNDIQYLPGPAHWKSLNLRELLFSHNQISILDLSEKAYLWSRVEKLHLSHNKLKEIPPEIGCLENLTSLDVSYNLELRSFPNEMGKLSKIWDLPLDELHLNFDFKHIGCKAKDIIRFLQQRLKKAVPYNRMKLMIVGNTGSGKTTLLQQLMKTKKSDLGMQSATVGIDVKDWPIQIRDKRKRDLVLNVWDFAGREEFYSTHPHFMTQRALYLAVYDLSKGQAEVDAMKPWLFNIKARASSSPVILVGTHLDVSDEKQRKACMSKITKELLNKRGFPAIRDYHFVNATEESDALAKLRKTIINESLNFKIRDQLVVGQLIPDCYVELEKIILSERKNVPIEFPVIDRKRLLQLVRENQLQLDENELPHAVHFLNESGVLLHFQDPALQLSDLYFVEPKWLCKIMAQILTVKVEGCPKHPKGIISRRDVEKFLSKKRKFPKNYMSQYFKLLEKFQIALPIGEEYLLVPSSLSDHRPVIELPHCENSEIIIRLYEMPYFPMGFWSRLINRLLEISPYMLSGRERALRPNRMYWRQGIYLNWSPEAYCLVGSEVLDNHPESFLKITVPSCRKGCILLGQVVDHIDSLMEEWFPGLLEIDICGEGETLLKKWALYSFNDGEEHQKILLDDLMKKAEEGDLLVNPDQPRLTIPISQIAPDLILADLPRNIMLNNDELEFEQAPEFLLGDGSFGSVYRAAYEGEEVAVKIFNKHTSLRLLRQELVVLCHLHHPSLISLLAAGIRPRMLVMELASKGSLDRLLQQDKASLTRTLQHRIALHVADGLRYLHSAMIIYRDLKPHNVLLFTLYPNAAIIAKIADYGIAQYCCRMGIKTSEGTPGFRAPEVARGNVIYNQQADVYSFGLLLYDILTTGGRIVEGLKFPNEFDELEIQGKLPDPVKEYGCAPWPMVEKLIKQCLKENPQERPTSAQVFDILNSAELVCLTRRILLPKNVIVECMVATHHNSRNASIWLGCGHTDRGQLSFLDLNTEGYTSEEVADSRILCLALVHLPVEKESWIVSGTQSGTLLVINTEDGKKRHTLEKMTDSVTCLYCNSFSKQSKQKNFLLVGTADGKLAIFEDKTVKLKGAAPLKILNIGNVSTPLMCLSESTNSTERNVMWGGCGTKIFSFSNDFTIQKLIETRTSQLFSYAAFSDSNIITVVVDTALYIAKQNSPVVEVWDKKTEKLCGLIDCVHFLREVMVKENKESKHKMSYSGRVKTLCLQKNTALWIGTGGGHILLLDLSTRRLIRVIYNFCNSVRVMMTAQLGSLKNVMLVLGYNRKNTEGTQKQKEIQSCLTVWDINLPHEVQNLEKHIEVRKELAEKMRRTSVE

[16] = biological target: Vascular endothelial growth factor receptor 3 (Homo sapiens, UniProt P35916);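 note: value from a kinome-wide profiling panel, with FLT4 as the panel member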
[17] = biological target: Homeodomain-interacting protein kinase 4 (Homo sapiens, UniProt Q8NE63)
[18] = biological target: Cyclin-dependent kinase 8 (Homo sapiens, UniProt P49336); assay: Navigating the Kinome. Panel member name: CDK8
[19] = biological target: Vascular endothelial growth factor receptor 1 (Homo sapiens, UniProt P17948);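 note: measured within a kinome-wide profiling panel, FLT1 as the panel member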
[20] = biological target: Fibroblast growth factor receptor 3 (Homo sapiens, UniProt P22607)
[21] = biological target: Macrophage colony-stimulating factor 1 receptor (Homo sapiens, UniProt P07333);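 note: value comes from the Navigating the Kinome screening panel, CSF1R member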
[22] = biological target: Calcium/calmodulin-dependent protein kinase type II subunit alpha (Homo sapiens, UniProt Q9UQM7); assay: Navigating the Kinome. Panel member name: CAMK2A
Calcium/calmodulin-dependent protein kinase type II subunit alpha, sequence (Q9UQM7 whole entry): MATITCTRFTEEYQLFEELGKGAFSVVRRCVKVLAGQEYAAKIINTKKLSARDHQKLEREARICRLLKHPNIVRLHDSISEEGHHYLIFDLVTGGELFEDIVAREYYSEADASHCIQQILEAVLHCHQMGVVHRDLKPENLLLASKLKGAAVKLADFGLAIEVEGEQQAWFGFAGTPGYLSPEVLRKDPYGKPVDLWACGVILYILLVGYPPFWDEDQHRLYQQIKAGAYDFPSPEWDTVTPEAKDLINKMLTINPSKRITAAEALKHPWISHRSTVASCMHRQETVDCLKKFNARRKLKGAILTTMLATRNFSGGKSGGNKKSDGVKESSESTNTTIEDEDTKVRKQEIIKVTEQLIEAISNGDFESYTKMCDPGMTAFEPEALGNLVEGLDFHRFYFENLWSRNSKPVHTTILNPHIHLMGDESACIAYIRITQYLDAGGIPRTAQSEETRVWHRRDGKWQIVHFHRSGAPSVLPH

[23] = biological target: Tyrosine-protein kinase receptor UFO (Homo sapiens, UniProt P30530)
[24] = biological target: Leukocyte tyrosine kinase receptor (Homo sapiens, UniProt P29376); assay: Navigating the Kinome. Panel member name: LTK
Leukocyte tyrosine kinase receptor, sequence (P29376 whole entry): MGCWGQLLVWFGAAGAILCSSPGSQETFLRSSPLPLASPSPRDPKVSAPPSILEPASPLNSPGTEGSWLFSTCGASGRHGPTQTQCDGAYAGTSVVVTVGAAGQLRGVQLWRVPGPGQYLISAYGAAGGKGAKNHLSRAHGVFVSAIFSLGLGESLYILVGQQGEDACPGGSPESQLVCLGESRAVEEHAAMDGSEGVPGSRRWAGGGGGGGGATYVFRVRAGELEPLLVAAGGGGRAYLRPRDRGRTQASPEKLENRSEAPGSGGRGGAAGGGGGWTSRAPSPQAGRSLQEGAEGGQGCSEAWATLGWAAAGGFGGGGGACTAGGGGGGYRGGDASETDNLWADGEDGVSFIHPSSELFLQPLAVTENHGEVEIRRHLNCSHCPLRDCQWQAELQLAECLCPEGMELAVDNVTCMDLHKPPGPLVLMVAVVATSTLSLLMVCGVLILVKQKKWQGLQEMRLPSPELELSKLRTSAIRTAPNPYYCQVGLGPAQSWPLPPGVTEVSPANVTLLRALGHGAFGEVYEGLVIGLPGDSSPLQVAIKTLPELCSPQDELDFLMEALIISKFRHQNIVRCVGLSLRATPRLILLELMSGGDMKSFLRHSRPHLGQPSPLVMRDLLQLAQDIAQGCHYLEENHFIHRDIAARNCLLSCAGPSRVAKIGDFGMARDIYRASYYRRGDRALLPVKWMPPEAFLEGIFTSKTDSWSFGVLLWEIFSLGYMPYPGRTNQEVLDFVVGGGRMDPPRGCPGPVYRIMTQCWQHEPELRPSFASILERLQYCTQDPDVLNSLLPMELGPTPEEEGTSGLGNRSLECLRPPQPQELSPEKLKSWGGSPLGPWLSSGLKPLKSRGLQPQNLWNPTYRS

[25] = biological target: Protein kinase C theta type (Homo sapiens, UniProt Q04759); assay: Navigating the Kinome. Panel member name: PRKCQ
[26] = biological target: Dual specificity protein kinase CLK2 (Homo sapiens, UniProt P49760)
[27] = biological target: Dual specificity mitogen-activated protein kinase kinase 1 (Homo sapiens, UniProt Q02750); assay: Navigating the Kinome. Panel member name: MAP2K1
[28] = biological target: Serine/threonine-protein kinase TBK1 (Homo sapiens, UniProt Q9UHD2); assay: Navigating the Kinome. Panel member name: TBK1
[29] = biological target: 5'-AMP-activated protein kinase catalytic subunit alpha-1 (Homo sapiens, UniProt Q13131)
[30] = biological target: ALK tyrosine kinase receptor (Homo sapiens, UniProt Q9UM73);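 note: ALK tested as one member of a kinase panel screen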
[31] = biological target: Proto-oncogene tyrosine-protein kinase receptor Ret (Homo sapiens, UniProt P07949);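 note: measured within a kinome-wide profiling panel, RET as the panel member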
[32] = biological target: Serine/threonine-protein kinase D3 (Homo sapiens, UniProt O94806);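 note: determined within a kinase panel screen, with PRKCN as the panel member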
[33] = biological target: Activin receptor type-1 (Homo sapiens, UniProt Q04771); assay: Navigating the Kinome. Panel member name: ACVR1
[34] = biological target: Mitogen-activated protein kinase 8 (Homo sapiens, UniProt P45983);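 note: value comes from one member of a kinome-wide kinase profiling panel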
[35] = biological target: Serine/threonine-protein kinase pim-1 (Homo sapiens, UniProt P11309)
[36] = biological target: Aurora kinase A (Homo sapiens, UniProt O14965);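 note: value from the Navigating the Kinome kinase panel profiling, panel entry STK6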
[37] = biological target: Tyrosine-protein kinase BTK (Homo sapiens, UniProt Q06187)
[38] = biological target: Serine/threonine-protein kinase PAK 4 (Homo sapiens, UniProt O96013);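 note: value obtained within a kinome profiling panel in which PAK4 was one of the panel members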
[39] = biological target: Fibroblast growth factor receptor 1 (Homo sapiens, UniProt P11362)
[40] = biological target: Casein kinase I isoform alpha (Homo sapiens, UniProt P48729)
[41] = biological target: LIM domain kinase 1 (Homo sapiens, UniProt P53667); assay: Navigating the Kinome. Panel member name: LIMK1
[42] = biological target: High affinity nerve growth factor receptor (Homo sapiens, UniProt P04629);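 note: NTRK1 tested as one member of a kinome-wide profiling panel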
[43] = biological target: Glycogen synthase kinase-3 alpha (Homo sapiens, UniProt P49840);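 note: GSK3A result taken from a broad kinome-wide kinase panel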
[44] = biological target: Mitogen-activated protein kinase kinase kinase kinase 2 (Homo sapiens, UniProt Q12851);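 note: measured as one member of a kinome-wide kinase panel, with MAP4K2 as the panel entry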
[45] = biological target: Hepatocyte growth factor receptor (Homo sapiens, UniProt P08581);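 note: kinase panel profiling across the kinome, with MET as the panel member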
[46] = biological target: Activated CDC42 kinase 1 (Homo sapiens, UniProt Q07912); assay: Navigating the Kinome. Panel member name: ACK1
[47] = biological target: Receptor-type tyrosine-protein kinase FLT3 (Homo sapiens, UniProt P36888);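 note: FLT3 was tested as one member of a kinome-wide kinase panel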
[48] = biological target: Serine/threonine-protein kinase Chk1 (Homo sapiens, UniProt O14757);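 note: measured as one member of a kinome-wide kinase profiling panel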
[49] = biological target: Tyrosine-protein kinase ABL1 (Homo sapiens, UniProt P00519)
[50] = biological target: Cyclin-dependent kinase 5 (Homo sapiens, UniProt Q00535);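 note: CDK5 measured as one member of a kinase profiling panel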
[51] = biological target: Insulin-like growth factor 1 receptor (Homo sapiens, UniProt P08069); assay: Navigating the Kinome. Panel member name: IGF1R
[52] = biological target: cAMP-dependent protein kinase catalytic subunit PRKX (Homo sapiens, UniProt P51817)
[53] = biological target: Aurora kinase B (Homo sapiens, UniProt Q96GD4)
[54] = biological target: Rho-associated protein kinase 1 (Homo sapiens, UniProt Q13464);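 note: measured within a broad kinome-wide panel profiling many kinases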
[55] = biological target: Tyrosine-protein kinase Fyn (Homo sapiens, UniProt P06241)
[56] = biological target: Serine/threonine-protein kinase Nek2 (Homo sapiens, UniProt P51955)
[57] = biological target: Cyclin-dependent kinase 7 (Homo sapiens, UniProt P50613);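 note: value comes from a kinome-wide kinase profiling panel in which CDK7 is one member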
[58] = biological target: Glycogen synthase kinase-3 beta (Homo sapiens, UniProt P49841);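 note: value comes from a broad kinome profiling panel, with GSK3B as the panel member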
[59] = biological target: Cyclin-dependent kinase 9 (Homo sapiens, UniProt P50750);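 note: value from the CDK9 entry of a kinome-spanning kinase panel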
[60] = biological target: BDNF/NT-3 growth factors receptor (Homo sapiens, UniProt Q16620);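 note: NTRK2 measured as one member of a broad kinome-wide kinase profiling panel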
[61] = biological target: cAMP-dependent protein kinase catalytic subunit alpha (Homo sapiens, UniProt P17612)
[62] = biological target: Dual specificity protein kinase CLK4 (Homo sapiens, UniProt Q9HAZ1)
[63] = biological target: Mitogen-activated protein kinase kinase kinase kinase 4 (Homo sapiens, UniProt O95819)
[64] = biological target: Macrophage-stimulating protein receptor (Homo sapiens, UniProt Q04912); assay: Navigating the Kinome. Panel member name: MST1R
[65] = biological target: Dual specificity tyrosine-phosphorylation-regulated kinase 1A (Homo sapiens, UniProt Q13627);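 note: measured against DYRK1A as one member of a broad kinome profiling panel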
[66] = biological target: Inhibitor of nuclear factor kappa-B kinase subunit epsilon (Homo sapiens, UniProt Q14164); assay: Navigating the Kinome. Panel member name: IKBKE

- Ki [1]: 0.02 µM (active)
- Ki [2]: > 3.16 µM (inactive)
- Ki [3]: > 3.16 µM (inactive)
- Ki [5]: 0.158 µM (active)
- Ki [6]: > 6.31 µM (inactive)
- Ki [7]: 0.501 µM (active)
- Ki [8]: 0.2 µM (active)
- Ki [9]: 1.58 µM (active)
- Ki [10]: 0.631 µM (active)
- Ki [11]: 0.398 µM (active)
- Ki [12]: 2.51 µM (active)
- Ki [13]: > 2.51 µM (inactive)
- Ki [14]: > 2.51 µM (inactive)
- Ki [15]: 2.51 µM (active)
- Ki [16]: 0.2 µM (active)
- Ki [17]: > 7.94 µM (inactive)
- Ki [18]: > 3.98 µM (inactive)
- Ki [19]: 0.794 µM (active)
- Ki [20]: 0.158 µM (active)
- Ki [21]: 0.0398 µM (active)
- Ki [22]: > 3.98 µM (inactive)
- Ki [23]: 0.0398 µM (active)
- Ki [24]: 0.00158 µM (active)
SMILES: CN1CCN(c2ccc(C(=O)Nc3n[nH]c4ccc(Cc5cc(F)cc(F)c5)cc34)c(NC3CCOCC3)c2)CC1 [ENTRECTINIB]
- Ki [4]: 2.51 µM (active)

- Ki [25]: 20 µM (active)
- Ki [26]: 50.1 µM (active)
- Ki [27]: 79.4 µM (active)
- Ki [28]: 7.94 µM (active)
- Ki [29]: 15.8 µM (active)
- Ki [30]: 31.6 µM (active)
- Ki [31]: 12.6 µM (active)
- Ki [2]: 7.94 µM (active)
- Ki [32]: 10 µM (active)
- Ki [33]: 15.8 µM (active)
- Ki [34]: 31.6 µM (active)
- Ki [35]: 50.1 µM (active)
- Ki [36]: 7.94 µM (active)
- Ki [37]: 31.6 µM (active)
- Ki [38]: 63.1 µM (active)
- Ki [39]: 31.6 µM (active)
- Ki [40]: 20 µM (active)
- Ki [41]: 1.58 µM (active)
- Ki [42]: 15.8 µM (active)
- Ki [43]: 31.6 µM (active)
- Ki [44]: 10 µM (active)
- Ki [45]: 6.31 µM (active)
- Ki [46]: 50.1 µM (active)
- Ki [47]: 15.8 µM (active)
- Ki [48]: 2.51 µM (active)
- Ki [49]: 12.6 µM (active)
- Ki [50]: 6.31 µM (active)
- Ki [51]: 79.4 µM (active)
- Ki [13]: 3.98 µM (active)
- Ki [52]: 10 µM (active)
- Ki [14]: 12.6 µM (active)
- Ki [15]: 6.31 µM (active)
- Ki [53]: 25.1 µM (active)
- Ki [54]: 79.4 µM (active)
- Ki [55]: 50.1 µM (active)
- Ki [56]: 3.16 µM (active)
- Ki [18]: 5.01 µM (active)
- Ki [57]: 20 µM (active)
- Ki [19]: 20 µM (active)
- Ki [58]: 20 µM (active)
- Ki [59]: 3.98 µM (active)
- Ki [60]: 100 µM (active)
- Ki [61]: 15.8 µM (active)
- Ki [62]: 0.501 µM (active)
- Ki [63]: 63.1 µM (active)
- Ki [64]: 50.1 µM (active)
- Ki [21]: 15.8 µM (active)
- Ki [65]: 2 µM (active)
- Ki [66]: 15.8 µM (active)
- Ki [22]: 15.8 µM (active)
- Ki [24]: 3.98 µM (active)
SMILES: Nc1cc(=O)[nH]n1-c1ccccn1
- Ki [4]: 20 µM (active)

— ChEMBL document CHEMBL1201862, “PubChem BioAssay data set” (2004)
